Experimental data from patent publication US7968607B2, “Skin pore minimizers and skin elasticity improvers” (Koa Corporation, priority 2000, dated 2011).
Counter-ions that a name gives are not always drawn.

Legend:
[1] = test system: human skin fibroblasts (derived from a human fore skin); experiment: Collagen gel tightening promoting ability (fibroblast-embedded collagen gel, dermis model); assay type: cell-based; details: Homo sapiens, Skin fibroblast, 48 hours, relative volume, control = 100%
Procedure: Measurement was conducted on the ability to promote the tightening of a fibroblast-embedded collagen gel as a dermis model. The collagen gel was prepared following the procedure reported in a publication [J. Cell Science, 102, 315 (1992) or J. Invest. Dermatol., 93, 792 (1989)]. Described specifically, a solution of HEPES (250 mM) in a 0.05 N sodium hydroxide solution, a 5-fold concentrate of DMEM (“GIBCO DMEM”, low glucose), FCS (2%, Fetal Calf Serum) and purified water were added under ice cooling to a collagen gel solution (product of Nitta Gelatin Inc., “type 1-A” (3.0 mg/mL, pH=3)), and finally, a suspension of human skin fibroblasts (derived from a human fore skin) was added. After the resulting mixture was thoroughly stirred to eliminate bubbles, 600 μL per well was added to 24-well dishes, followed by immediate warming at 37° C. in an incubator to effect gelation. Three to four hours later, 1 mL of serum-free DMEM medium was added to each of the wells, and the gels were separated at peripheries thereof from the corresponding dishes and were brought into a floating state. Eighteen hours after that, the medium was replaced with serum-free DMEM media which contained 100 to 10 μM of test substances, respectively, and incubation was conducted further for 48 hours.
Volume measurement of the gels was conducted by a weight measuring method similar to that reported in the publication [J. Cell Science, 102, 315 (1992)]. Described specifically, subsequent to immobilization with 10% formalin (4° C., 24 hours), the surface tension of water was reduced by the addition of Triton X100 (product of Wako Pure Chemical Industries) (1%), and the weights were measured.
Measurement results of relative volumes for the respective compounds as calculated supposing that the volume of the control was 100% are presented in Table 3.

[2] = test system: dorsal skin of HR rats (WBN/ILA-HT); experiment: Rat skin elasticity improving (tightening) effect, cutometer; assay type: in vivo; details: 2% solution in 10% ethanol sprayed on dorsal skin, 0.7 mL, 7 to 8 times a week, two weeks
[3] = test system: dorsal skin of HR rats (WBN/ILA-HT); experiment: as above; assay type: in vivo; details: for Ur/Uf / Ue (instantaneous elastic displacement) / Uf (final displacement) / Ur (instantaneous recovery displacement): 2% solution in 10% ethanol, two weeks; for Ur/Uf: cutometer; for Ue (instantaneous elastic displacement) / Uf (final displacement) / Ur (instantaneous recovery displacement): cutometer 100 hpa, 5 s suction, 2 s release; for skin elasticity / skin tightening effect: when applied, from Table 4 and Table 5
Procedure: Onto the entire dorsal skins of HR rats (WBN/ILA-HT, 7 weeks old), 2% solutions of Compounds 1 and 4 (solvent: 10% ethanol) were applied in the form of spray, respectively, once or twice a day, 7 to 8 times a week in total, in an amount of 0.7 mL each time. As a control, 10% ethanol solution was used. Two weeks later, the skin elasticity of the skin at a central dorsal part at a site slightly rightward of the median line of each HR rat was measured under Nembutal anesthesia by using a cutometer (“CUTOMETER SEM474”, Courage+Khazaka Electronic GmbH). The measurement was conducted by setting the suction pressure, suction time and release time at 100 hpa, 5 seconds and 2 seconds, and an instantaneous elastic displacement Ue, an instantaneous recovery displacement Ur and a final displacement Uf were recorded. Based on changes in the skin elasticity, skin tightening effect was determined. Ue is an index of elasticity, while Uf is an index of softness and malleability. Both of these values decrease on the face or the like upon aging, and also decrease when the skin is in a swollen state. Increases in these values, therefore, can be taken as an indication of a state that the skin is in a tightened state with its softness, melleability and elasticity having been increased further. Ur is also an index of elasticity, and decreases when the skin is in a saggy state or a swollen state. Similarly, an increase in this value serves as an indication of a state that the skin is in a tightened state with its elasticity and tightness having been increased further. Further, Ur/Uf is also an index of the elasticity of the skin, and like Ur, decreases when the skin becomes saggy or is swollen. Moreover, Ur/Uf is known to decrease upon aging irrespective of the face or body site, and is an important index of sagginess.

[4] = test system: human skin fibroblasts (derived from a human fore skin); experiment: Collagen gel tightening promoting ability (fibroblast-embedded collagen gel, dermis model); assay type: cell-based; details: 48 hours, relative volume, control = 100%

SMILES	activity at 10 µM [1] [%]	activity at 30 µM [1] [%]	Skin thickness (mm) [2] [mm]	Ur/Uf [3]	Ue (instantaneous elastic displacement) [3]	Uf (final displacement) [3]	Ur (instantaneous recovery displacement) [3]	skin elasticity / skin tightening effect [3]	activity at 3 µM [4] [%]	activity at 15 µM ([1]; 15 μM, read-out: Average gel volume) [%]	activity at 50 µM ([1]; 50 μM, read-out: Average gel volume) [%]
CCCCCCCCCCCCOCC(O)COS(=O)(=O)[O-].[Na+] (stereo not shown) [Compound 1, 1-dodecylglycerol-3-sulfate sodium salt]	93	85	0.820	0.540	0.113	0.159	0.834	increased the skin elasticity and exhibited skin tightening effect	–	–	–
CC(C)CCCCCCCCCCCCCCCOCC(O)COS(=O)(=O)O (stereo not shown) [Compound 3, 1-isostearylglycerol-3-sulfate sodium salt]	74	95	–	–	–	–	–	–	86	–	–
CCCCCCCCCCOCC(O)COP(=O)([O-])[O-].[Na+].[Na+] (stereo not shown) [Compound 4, 1-decylglycerol-3-phosphate disodium salt]	–	–	0.725	0.401	0.225	0.275	0.109	increased the skin elasticity and exhibited skin tightening effect	–	96	88
